pIC50, pKd: −log10 of the molar value. Structures can show the parent of a compound that is named as a salt.
How the values were obtained:
[1] = target: T1, proMMP9(20-445;ΔFnII) (SEQ ID NO:6) (Homo sapiens, UniProt P14780, DEL216-390); test: ThermoFluor binding assay with proMMP9(20-445;ΔFnII)
T1 construct: amino acid pairs including: 29-215/391-444, 67-215/391-444, and 20-215/391-445, respectively; start methionine (N); made in house; host or cells: E. coli BL21(DE3) RIL
T1 sequence (P14780 with tags, fused parts or gaps DEL216-390): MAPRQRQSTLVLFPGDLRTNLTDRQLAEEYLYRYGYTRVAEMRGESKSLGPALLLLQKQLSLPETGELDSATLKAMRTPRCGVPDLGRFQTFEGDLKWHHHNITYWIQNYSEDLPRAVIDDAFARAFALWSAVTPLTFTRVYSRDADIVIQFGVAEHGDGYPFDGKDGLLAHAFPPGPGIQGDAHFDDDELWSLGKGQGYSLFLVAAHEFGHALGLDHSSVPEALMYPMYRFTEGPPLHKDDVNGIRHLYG
Experimental: (§1) The experiments were carried out using instruments available from Johnson & Johnson Pharmaceutical Research & Development, LLC. TF dye used in all experiments was […] (1,8-ANS) (Invitrogen: A-47).
(§2) Columns 12 and 24 were used as DMSO reference and contained no compound. […] Following compound dispense, protein and dye solutions were added to achieve the final assay volume of 3 μL.
(§3) Assay plates were robotically loaded onto a thermostatically controlled PCR-type thermal block and then heated from 40 to 90° C. at a ramp-rate of 1° C./min for all experiments. Fluorescence was measured by continuous illumination with UV light (Hamamatsu LC6) supplied via fiber optics and filtered through a band-pass filter (380-400 nm; >6 OD cutoff). Fluorescence emission of the entire 384-well plate was detected by measuring light intensity using a CCD camera (Sensys, Roper Scientific) filtered to detect 500±25 nm, resulting in simultaneous and independent readings of all 384 wells.
(§4) Thermodynamic parameters necessary for fitting compound binding for each proMMP were estimated by differential scanning calorimetry (DSC) and from ThermoFluor® data. The heat capacity of unfolding for each protein was estimated from the molecular weight and from ThermoFluor® dosing data.
The protein sample preparations included a desalting buffer exchange step via a PD-10 gravity column (GE Healthcare).

[2] = target: T2, proMMP9(67-444;ΔFnII) (SEQ ID NO:5) (Homo sapiens, UniProt P14780, DEL216-390); test: ThermoFluor binding assay with proMMP9(67-444;ΔFnII)
T2 construct: amino acid pairs including: 29-215/391-444, 67-215/391-444, and 20-215/391-445, respectively; start methionine (N); made in house; host or cells: E. coli BL21(DE3) RIL
T2 sequence (P14780 with tags, fused parts or gaps DEL216-390): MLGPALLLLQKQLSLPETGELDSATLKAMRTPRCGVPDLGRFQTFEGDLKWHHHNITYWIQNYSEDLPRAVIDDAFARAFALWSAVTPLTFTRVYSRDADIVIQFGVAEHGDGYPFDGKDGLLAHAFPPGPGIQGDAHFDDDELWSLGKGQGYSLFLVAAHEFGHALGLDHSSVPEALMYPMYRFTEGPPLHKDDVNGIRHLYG
Experimental: as §1, §2, §3, §4
The protein sample preparations had to include a desalting buffer exchange step via a PD-10 gravity column (GE Healthcare).

[3] = target: full-length proMMP9(1-707) activation by catalytic MMP3 (Homo sapiens, UniProt P14780, R574P); test: ProMMP9/MMP3 DQ Gelatin Activation Assay;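 also: readout is fluorescence of quenched fluorescein gelatin cut by activated MMP9, 30 min activation at 37 °C, inhibition relative to DMSO-only controls with EDTA as blank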; type: biochemical; design: made in house; host or cells: COS-1 (proMMP9); E. coli (MMP3); conditions: proMMP9 from COS-1 cells; read-out: ProMMP9/MMP3 DQ gel, IC50
Chain of full-length proMMP9(1-707) activation by catalytic MMP3 (P14780 20-707 R574P): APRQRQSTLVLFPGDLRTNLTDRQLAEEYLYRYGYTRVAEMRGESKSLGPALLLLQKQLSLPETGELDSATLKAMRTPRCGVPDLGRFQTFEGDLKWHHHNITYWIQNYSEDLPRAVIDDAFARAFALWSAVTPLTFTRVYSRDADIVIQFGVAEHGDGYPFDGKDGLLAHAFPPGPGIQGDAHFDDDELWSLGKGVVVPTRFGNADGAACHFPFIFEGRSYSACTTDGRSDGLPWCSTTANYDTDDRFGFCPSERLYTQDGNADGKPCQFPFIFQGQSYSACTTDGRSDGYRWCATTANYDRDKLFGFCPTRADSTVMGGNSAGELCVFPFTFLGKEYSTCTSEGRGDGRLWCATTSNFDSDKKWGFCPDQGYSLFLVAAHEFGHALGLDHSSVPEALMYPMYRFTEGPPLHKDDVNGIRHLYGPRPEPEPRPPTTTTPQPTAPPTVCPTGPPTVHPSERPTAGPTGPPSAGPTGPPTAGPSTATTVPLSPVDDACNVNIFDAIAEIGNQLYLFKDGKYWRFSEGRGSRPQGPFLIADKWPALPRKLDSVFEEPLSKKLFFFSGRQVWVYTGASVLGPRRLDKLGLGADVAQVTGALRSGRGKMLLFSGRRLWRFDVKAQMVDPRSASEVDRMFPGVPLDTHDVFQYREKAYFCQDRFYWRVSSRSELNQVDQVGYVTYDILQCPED
Experimental: Compounds were assessed for inhibition of proMMP9 activation by catalytic MMP3 using a quenched fluorescein gelatin substrate (DQ gelatin, Invitrogen D12054) that fluoresces upon cleavage by activated MMP9. The assay buffer employed was 50 mM Hepes, pH 7.5, 10 mM CaCl2, 0.05% Brij-35. DMSO was included at a final concentration of 0.2%, arising from the test compound addition. […] Test compounds in DMSO were diluted 250-fold in assay buffer at 4× the final concentration. The reaction volume was 12 μL, and all reactions were conducted in triplicate. […] The plate was sealed and incubated for 30 min at 37° C. […] Immediately following the 30 min incubation, 4 μL of 40 μg/ml DQ gelatin substrate was added (freshly diluted in assay buffer), and incubated for 10 min at room temperature. […] Reactivity of residual MMP3 towards DQ gelatin was minimal under these conditions. Percent inhibition of test compounds were determined from suitable positive (DMSO only in assay buffer) and negative (EDTA added prior to reaction initiation) controls. Plots of % inhibition vs. test compound concentration were fit to a four-parameter logistics equation (GraphPad Prism® software) for determination of IC50.

pKd [1] | pKd [2] | pIC50 [3] | Compound
4.99 | 5.41 | 5.15 | CNc1nc(C)c(-c2csc(Nc3ccccc3OC)n2)s1 [Example 35, N^2-(2-Methoxy-phenyl)-4′,N^2′-dimethyl-[4,5′]bithiazolyl-2,2′-diamine]
< 4.96 | < 4.96 | 5.77 | COc1ccccc1Nc1nc(-c2sc(N(C)C(C)=O)nc2C)cs1 [Example 36, N-[2-(2-Methoxy-phenylamino)-4′-methyl-[4,5′]bithiazolyl-2′-yl]-N-methyl-acetamide.TFA]
< 5.08 | < 5.08 | 5.02 | CCNc1nc(C)c(-c2csc(Nc3ccccc3OC)n2)s1 [Example 38]
5.20 | 5.60 | 4.77 | CC(=O)Nc1nc(C)c(-c2csc(Nc3ccccc3Cl)n2)s1 [Example 39, N-[2-(2-Chloro-phenylamino)-4′-methyl-[4,5′]bithiazolyl-2′-yl]-acetamide.HCl]
< 4.74 | 4.79 | < 4.70 | CC(=O)Nc1nc(C)c(-c2csc(Nc3ccccc3F)n2)s1 [Example 40, N-[2-(2-Fluoro-phenylamino)-4′-methyl-[4,5′]bithiazolyl-2′-yl]acetamide.TFA]
4.76 | 5.33 |  | COc1ccc(Nc2nc(-c3sc(N)nc3C)cs2)c(OC)c1 [Example 48, N^2-(2,4-Dimethoxy-phenyl)-4′-methyl-[4,5′]bithiazolyl-2,2′-diamine]
< 4.77 | 5.06 | 5.24 | COc1ccccc1Nc1nc(C2(C)CC3(CC(C)OC3=O)C(=O)O2)cs1 (stereo not shown) [Example 49, 3-[2-(2-Methoxy-phenylamino)-thiazol-4-yl]-3,8-dimethyl-2,7-dioxa-spiro[4.4]nonane-1,6-dione]
< 4.85 | 5.39 | 4.67 | COc1ccccc1Nc1nc(-c2sc(NC(=O)c3ccccc3)nc2C)cs1 [Example 50, N-[2-(2-Methoxy-phenylamino)-4′-methyl-[4,5′]bithiazolyl-2′-yl]-benzamide]
< 4.80 | < 4.82 | 5.00 | COc1ccc(OC)c(Nc2nc(-c3c(C)nc4ccccn34)cs2)c1 [Example 51, (2,5-Dimethoxy-phenyl)-[4-(2-methyl-imidazo[1,2-a]pyridin-3-yl)-thiazol-2-yl]-amine]
< 4.19 | 4.75 | 4.79 | COc1ccc(OC)c(Nc2nc(-c3cccnc3)cs2)c1 [Example 54, (2,5-Dimethoxy-phenyl)-(4-pyridin-3-yl-thiazol-2-yl)-amine]
< 4.15 | 4.83 | < 4.70 | COc1ccc(Cl)cc1Nc1nc(-c2cccnc2)cs1 [Example 56, (5-Chloro-2-methoxy-phenyl)-(4-pyridin-3-yl-thiazol-2-yl)-amine]
4.71 | 5.29 | 4.55 | CC(=O)Nc1nc(C)c(-c2csc(Nc3ccccc3C)n2)s1 [Example 63, N-(4′-Methyl-2-o-tolylamino-[4,5′]bithiazolyl-2′-yl)-acetamide]
< 5.21 | < 5.21 | 5.72 | CCOc1ccccc1Nc1nc(-c2sc(NC(C)=O)nc2C)cs1 [Example 66, N-[2-(2-Ethoxy-phenylamino)-4′-methyl-[4,5′]bithiazolyl-2′-yl]-acetamide]
< 4.82 | < 4.82 | 4.95 | COc1ccccc1Nc1nc(C2(C)CC3(CC(C)(C)OC3=O)C(=O)O2)cs1 (stereo not shown) [Example 69, 3-[2-(2-Methoxy-phenylamino)-thiazol-4-yl]-3,8,8-trimethyl-2,7-dioxa-spiro[4.4]nonane-1,6-dione]
4.93 | 5.18 | 5.16 | CCOc1ccccc1Nc1nc(-c2cnc3ncccn23)cs1 [Example 71, (2-Ethoxy-phenyl)-(4-imidazo[1,2-a]pyrimidin-3-yl-thiazol-2-yl)-amine]

The next lines start with the compound.

Compound | pKd [1] | pKd [2] | pIC50 [3]
Cc1nc(C)c(-c2csc(Nc3cccc(C(N)=O)c3)n2)s1 [Example 9, 3-(2′,4′-Dimethyl-[4,5′]bithiazolyl-2-ylamino)-benzamide] | 4.72 | < 4.09 | 
CC(=O)Nc1nc(C)c(-c2csc(Nc3ccccc3OCC3CC3)n2)s1 [Example 19, N-[2-(2-Cyclopropylmethoxy-phenylamino)-4′-methyl-[4,5′]bithiazolyl-2′-yl]-acetamide.TFA] | < 4.28 | 5.41 | 
COc1ccc(Nc2nc(-c3sc(NC(C)=O)nc3C)cs2)c(OC)c1 [Example 23, N-[2-(2,4-Dimethoxy-phenylamino)-4′-methyl-[4,5′]bithiazolyl-2′-yl]-acetamide.TFA] | < 4.46 | 5.26 | 4.58
c1cncc(-c2csc(Nc3ccccc3OCc3cccs3)n2)c1 [Example 24, (4-Pyridin-3-yl-thiazol-2-yl)-[2-(thiophen-2-ylmethoxy)-phenyl]-amine.TFA] | 6.43 | < 4.42 | < 4.70
CCCOc1ccccc1Nc1nc(-c2cccnc2)cs1 [Example 25, (2-Propoxy-phenyl)-(4-pyridin-3-yl-thiazol-2-yl)-amine] | 4.90 | 4.79 | < 4.70
COc1ccccc1Nc1nc(-c2cnccc2C)cs1 [Example 29, (2-Methoxy-phenyl)-[4-(4-methyl-pyridin-3-yl)-thiazol-2-yl]-amine.TFA] |  |  | 4.84
CC(=O)Nc1nc(C)c(-c2csc(Nc3ccccc3OC(F)(F)F)n2)s1 [Example 31, N-[4′-Methyl-2-(2-trifluoromethoxy-phenylamino)-[4,5′]bithiazolyl-2′-yl]-acetamide.HCl] | 5.48 | 6.19 | 5.48
CC(=O)Nc1nc(C)c(-c2csc(Nc3ccccc3C(F)(F)F)n2)s1 [Example 32, N-[4′-Methyl-2-(2-trifluoromethyl-phenylamino)-[4,5′]bithiazolyl-2′-yl]-acetamide.TFA] | < 5.04 | 5.04 | < 4.70
CSc1ccccc1Nc1nc(-c2sc(NC(C)=O)nc2C)cs1 [Example 33, N-[4′-Methyl-2-(2-methylsulfanyl-phenylamino)-[4,5′]bithiazolyl-2′-yl]-acetamide.HCl] | 5.43 | 6.16 | 5.54
(5-Chloro-2-methoxy-phenyl)-(4-imidazo[1,2-a]pyrazin-3-yl-thiazol-2-yl)-amine [Example 72] | 5.19 | < 4.24 | 5.51
